Laboratory results as given in patent publication US10392383B2, “3-(1H-benzo[d]imidazol-2-yl)-1H-pyrazolo[4,3-b]pyridines and therapeutic uses thereof” (Samumed, LLC, priority 2015, dated 2019).
pEC50: −log10 of the molar value.

Columns and labels:
Assay type in all cases: cell-based
[1] = system: SW480 colon cancer cells; assay: Cell viability assay (CellTiter-Blue) in SW480 cells; settings: Homo sapiens, 96 h, four days; for pEC50: CellTiter-Blue, 10 μM to 0.0045 μM; for inhibition at 10 µM: read-out: percent inhibition at 10 μM (given for EC50 of >10 μM)
Procedure: Representative compounds were screened using the following assay procedure to assess the effect on cell viability as described below.
Each compound was dissolved in DMSO as a 10 mM stock and used to prepare compound source plates. Serial dilution (1:3, 8-point dose-response curves from 10 μM to 0.0045 μM) and compound transfer was performed using the ECHO 550 (Labcyte, Sunnyvale, Calif.) into 96-well clear bottom, black-walled plates (Corning-Costar).
Approximately 2×10^3 SW480 colon cancer cells were seeded into each well and allowed to incubate in the presence or absence of compound for four days at 37° C./5% CO2. Eight replicates of DMSO-treated cells served as controls and cells treated with compound were performed in duplicate.
After incubation, 20 μL of CellTiter-Blue (Promega) was added to each well allowed to incubate for approximately 3 hours. This reagent was a buffered solution which contains resazurin, metabolically active cells were able to reduce rezarurin (blue) into resorufin (pink) which was highly fluorescent. This measured fluorescence was used as a readout for cell viability.
After incubation, the plates were read at Ex 560 nm Em 590 nm (Cytation 3, BioTek). Dose-response curves were generated and EC50 concentration values were calculated using non-linear regression curve fit in the GraphPad Prism (San Diego, Calif.) or Dotmatics' Studies Software (Bishops Stortford, UK). For EC50 of >10 μM, the percent inhibition at 10 μM is provided.

[2] = system: IL-6 (THP-1 cells); assay: IL-6 inhibition in LPS-stimulated THP-1 monocytes (HTRF); settings: Homo sapiens, IL-6 HTRF; for pEC50: 500 ng/mL LPS, Table 6; for inhibition at 10 µM: LPS, Table 6, read-out: percent inhibition at 10 μM (given in parentheses for EC50 >10 μM)
Procedure: Human Monocyte Cell Culture: Human monocyte cell line (THP-1 cells; Catalog # TIB-202, ATCC, Manassas, Va.) were cultured in Roswell Park Memorial Institute (RPMI) 1640 Medium (Catalog #21870-100, Buffalo, N.Y.) with 1% L-glutamine, 1% HEPES, 1% Sodium Pyruvate, 2% Sodium Bicarbonate supplemented with 100 units/mL penicillin, 50 μg/mL streptomycin, 2-mercaptoethanol (0.05 mM) [basal medium] and 10% fetal bovine serum (Catalog #16140089, Life Technologies, Carlsbad, Calif.) at 37° C. and 5% CO2.
Compound Screening: THP-1 cells were cultured in basal media with 1% FBS for 24 hours before the start of the assay. Each compound was dissolved in DMSO as a 10 mM stock and used to prepare compound source plates. Serial dilution (1:3, 10-point dose-response curves starting from 10 μM) and compound transfer was performed using the ECHO 550 (Labcyte, Sunnyvale, Calif.) into 384-well white low volume assay plates (Greiner Bio-One) with appropriate DMSO backfill for a final DMSO concentration of 0.1%. THP-1 cells were plated at 5000 cells/well in the 384-well plates and incubated at 37° C. for 2 h. 500 ng/mL of LPS was added after 2 hours and cells were incubated for another 22 hours at 37° C. Plates were spun in a centrifuge for 1 minute at […] and a mixture of anti-IL6 XL665, and anti-IL6 Cryptate diluted in reconstitution buffer (Cisbio Inc.) was added to each well. Following incubation for 3 hrs at room temperature, Homogeneous Time-Resolved Fluorescence (HTRF) was measured using the Envision (Perkin Elmer) at 665 nm and […]. The ratio of fluorescence at 665 nm to 620 nm was used as a readout for IL6 quantification. All samples were processed in duplicate. Readings were normalized to DMSO treated cells and normalized activities were utilized for EC50 calculations using the dose-response log (inhibitor) vs. response-variable slope (four parameters) nonlinear regression feature available in GraphPad Prism 5.0 (or Dotmatics). For EC50 of >10 μM, the percent inhibition at 10 μM is provided.

[3] = system: Wnt activity (Sp5-Luc reporter, Wnt-responsive promoter) in SW480 colon carcinoma cells; assay: Wnt activity screening assay: Sp5-Luc reporter gene assay in SW480 cells; settings: Homo sapiens; for inhibition at 10 µM: read-out: percent inhibition at 10 μM (given for EC50 of >10 μM); for pEC50: overnight incubation, 10-point curve starting from 10 μM
Excerpt: The screening assay for Wnt activity is described as follows. Reporter cell lines can be generated by stably transducing cancer cell lines (e.g., colon cancer) or primary cells (e.g., IEC-6 intestinal cells) with a lentiviral construct that includes a Wnt-responsive promoter driving expression of the firefly luciferase gene.
SW480 colon carcinoma cells were transduced with a lentiviral vector expressing luciferase with a human Sp5 promoter consisting of a sequence of eight TCF/LEF binding sites. SW480 cells stably expressing the Sp5-Luc reporter gene and a hygromycin resistance gene were selected by treatment with 150 μg/mL of hygromycin for 7 days. These stably transduced SW480 cells were expanded in cell culture and used for all further screening activities. Each compound was dissolved in DMSO as a 10 mM stock and used to prepare compound source plates. Serial dilution (1:3, 10-point dose-response curves starting from 10 μM) and compound transfer was performed using the ECHO 550 (Labcyte, Sunnyvale, Calif.) into 384-well white solid bottom assay plates (Greiner Bio-One) with appropriate DMSO backfill for a final DMSO concentration of 0.1%. For Sp5-Luc reporter gene assays, the cells were plated at 4,000 cells/well in 384-well plates with medium containing 1% fetal bovine serum and incubated overnight at 37° C. and 5% CO2. Following incubation, 20 μl of BrightGlo luminescence reagent (Promega) was added to each well of the 384-well assay plates. The plates were placed on an orbital shaker for 2 min and then luminescence was quantified using the Envision (Perkin Elmer) plate reader. Readings were normalized to DMSO only treated cells, and normalized activities were utilized for EC50 calculations using the dose-response log (inhibitor) vs. response-variable slope (four parameters) nonlinear regression feature available in GraphPad Prism 5.0 (or Dotmatics). For EC50 of >10 μM, the percent inhibition at 10 μM is provided.

SMILES	pEC50 [1]	pEC50 [2]	inhibition at 10 µM [2] [%]	inhibition at 10 µM [3] [%]	pEC50 [3]	inhibition at 10 µM [1] [%]
O=C(Nc1cncc(-c2ccc3[nH]nc(-c4nc5c(-c6ccsc6)cccc5[nH]4)c3n2)c1)c1ccccc1 [Compound 291, N-(5-(3-(4-(Thiophen-3-yl)-1H-benzo[d]imidazol-2-yl)-1H-pyrazolo[4,3-b]pyridin-5-yl)pyridin-3-yl)benzamide]	5.46	< 5.00	28.9	42.5	< 5.00	
Cc1ccc(-c2cccc3[nH]c(-c4n[nH]c5ccc(-c6cncc(NC(=O)C7CCCC7)c6)nc45)nc23)s1 [Compound 414, N-(5-(3-(4-(5-Methylthiophen-2-yl)-1H-benzo[d]imidazol-2-yl)-1H-pyrazolo [4,3-b]pyridin-5-yl)pyridin-3-yl)cyclopentanecarboxamide]	< 5.00	7.01		7.2	< 5.00	0
CS(=O)(=O)NCc1cc(F)cc(-c2cccc3[nH]c(-c4n[nH]c5ccc(-c6cncc(NC(=O)c7ccccc7)c6)nc45)nc23)c1 [Compound 487, N-(5-(3-(4-(3-Fluoro-5-(methylsulfonamidomethyl)phenyl)-1H-benzo[d]imidazol-2-yl)-1H-pyrazolo[4,3-b]pyridin-5-yl)pyridin-3-yl)benzamide]	< 5.00	< 5.00	0	0	< 5.00	9.7
Fc1cccc(-c2cccc3[nH]c(-c4n[nH]c5ccc(C6=CCNCC6)nc45)nc23)c1 [Compound 506, 3-(4-(3-Fluorophenyl)-1H-benzo[d]imidazol-2-yl)-5-(1,2,3,6-tetrahydropyridin-4-yl)-1H-pyrazolo[4,3-b]pyridine]	5.38	< 5.00	25.9	10	< 5.00	
Fc1cccc(-c2cccc3[nH]c(-c4n[nH]c5ccc(-c6cn[nH]c6)nc45)nc23)c1 [Compound 507, 3-(4-(3-Fluorophenyl)-1H-benzo[d]imidazol-2-yl)-5-(1H-pyrazol-4-yl)-1H-pyrazolo[4,3-b]pyridine]	6.01	< 5.00	31.7	36	< 5.00	
Fc1cccc(-c2cccc3[nH]c(-c4n[nH]c5ccc(-c6cnccn6)nc45)nc23)c1 [Compound 520, 3-(4-(3-Fluorophenyl)-1H-benzo[d]imidazol-2-yl)-5-(pyrazin-2-yl)-1H-pyrazolo[4,3-b]pyridine]	5.75	< 5.00	43.3	26	< 5.00	
c1cc(-c2ccncc2)c2nc(-c3n[nH]c4ccc(-c5cncc(OC6CCNCC6)c5)nc34)[nH]c2c1 [Compound 576, 5-(5-(Piperidin-4-yloxy)pyridin-3-yl)-3-(4-(pyridin-4-yl)-1H-benzo[d]imidazol-2-yl)-1H-pyrazolo[4,3-b]pyridine]	< 5.00	< 5.00	37	25.7	< 5.00	9
c1ccc(COc2cncc(-c3ccc4[nH]nc(-c5nc6c(-c7ccncc7)cccc6[nH]5)c4n3)c2)cc1 [Compound 582, 5-(5-(Benzyloxy)pyridin-3-yl)-3-(4-(pyridin-4-yl)-1H-benzo[d]imidazol-2-yl)-1H-pyrazolo[4,3-b]pyridine]	< 5.00	< 5.00	2.8	39.1	< 5.00	28.5
c1cc(-c2ccncc2)c2nc(-c3n[nH]c4ccc(-c5cnccn5)nc34)[nH]c2c1 [Compound 584, 5-(Pyrazin-2-yl)-3-(4-(pyridin-4-yl)-1H-benzo[d]imidazol-2-yl)-1H-pyrazolo[4,3-b]pyridine]	< 5.00	< 5.00	14.7	7.4	< 5.00	9.6
